Experimental data: ChEMBL document CHEMBL5728798, “Macrocycles as factor XIA inhibitors” (2021)

Target: Coagulation factor XI (Homo sapiens, UniProt P03951)
Assay: In Vitro Assays: Factor XIa determinations were made in 50 mM HEPES buffer at pH 7.4 containing 145 mM NaCl, 5 mM KCl, and 0.1% PEG 8000 (polyethylene glycol; JT Baker or Fisher Scientific). Determinations were made using purified human Factor XIa at a final concentration of 25-200 pM (Haematologic Technologies) and the synthetic substrate S-2366 (pyroGlu-Pro-Arg-pNA; CHROMOGENIX® or AnaSpec) at a concentration of 0.0002-0.001 M.

Coagulation factor XI, sequence (P03951 19-387 limits assumed): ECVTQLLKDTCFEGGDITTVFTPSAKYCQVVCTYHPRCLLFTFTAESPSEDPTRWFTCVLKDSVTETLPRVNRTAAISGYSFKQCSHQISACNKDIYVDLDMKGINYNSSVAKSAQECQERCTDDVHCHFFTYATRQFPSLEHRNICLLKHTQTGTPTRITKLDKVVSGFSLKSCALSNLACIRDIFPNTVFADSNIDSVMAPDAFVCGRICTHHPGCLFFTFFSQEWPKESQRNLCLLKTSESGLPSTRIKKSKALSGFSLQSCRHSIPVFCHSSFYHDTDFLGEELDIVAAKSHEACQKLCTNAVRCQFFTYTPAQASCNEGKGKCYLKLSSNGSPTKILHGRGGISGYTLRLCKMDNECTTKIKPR
Coagulation factor XI, sequence (P03951 388-625 limits assumed): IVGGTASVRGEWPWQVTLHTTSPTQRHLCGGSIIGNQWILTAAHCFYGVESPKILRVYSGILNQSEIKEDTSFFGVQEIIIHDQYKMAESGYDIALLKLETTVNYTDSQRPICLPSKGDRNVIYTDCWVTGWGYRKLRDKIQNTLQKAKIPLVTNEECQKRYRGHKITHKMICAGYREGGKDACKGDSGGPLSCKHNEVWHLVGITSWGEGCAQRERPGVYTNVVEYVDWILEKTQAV

- Ki: 0.289 µM
SMILES: COC(=O)Nc1ccc2c(c1)N[C@@H](C(F)F)CCCC[C@H](NC(=O)/C=C/c1cc(Cl)ccc1-n1cnnn1)c1nc-2c[nH]1
